In the supplement of paper PMC10307832:

Tests used:
Experiment in all cases: relative viability (nuclei count vs DMSO), 5 days (fraction); higher = more cells survive
Idelalisib + Luminespib = compound: CC[C@H](Nc1ncnc2[nH]cnc12)c1nc2cccc(F)c2c(=O)n1-c1ccccc1 [Idelalisib] + CCNC(=O)c1noc(-c2cc(C(C)C)c(O)cc2O)c1-c1ccc(CN2CCOCC2)cc1 [Luminespib] (partner 0.01 µM)
Method in brief: (§1)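 Cells from lung cancer lines were seeded into 1536-well plates and, one day later, dosed by pin tool. Treatments were either a single drug or a fixed dose of an anchor drug with five library-drug doses (not always all listed) in √10 steps. After 5 days, nuclei were stained in a one-step fixation (final 0.05% Triton X-100, 1% formaldehyde, 1 ug/ml Hoechst) and counted on 4× images, and relative viability is the treated-to-vehicle nuclei ratio, as the median of duplicate plates.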

Idelalisib + Phenformin = compound: CC[C@H](Nc1ncnc2[nH]cnc12)c1nc2cccc(F)c2c(=O)n1-c1ccccc1 [Idelalisib] + N=C(N)NC(=N)NCCc1ccccc1 [Phenformin] (partner 250 µM)
Method in brief: as §1

Pemetrexed + OSI-027 = compound: Nc1nc2[nH]cc(CCc3ccc(C(=O)N[C@@H](CCC(=O)O)C(=O)O)cc3)c2c(=O)[nH]1 [Pemetrexed] + COc1cccc2cc(-c3nc([C@H]4CC[C@H](C(=O)O)CC4)n4ncnc(N)c34)[nH]c12 [OSI-027] (partner 0.5 µM)
Method in brief: as §1

Pemetrexed + Palbociclib = compound: Nc1nc2[nH]cc(CCc3ccc(C(=O)N[C@@H](CCC(=O)O)C(=O)O)cc3)c2c(=O)[nH]1 [Pemetrexed] + CC(=O)c1c(C)c2cnc(Nc3ccc(N4CCNCC4)cn3)nc2n(C2CCCC2)c1=O [Palbociclib] (partner 0.5 µM)
Method in brief: as §1

Cell Line	relative viability (Idelalisib + Luminespib; first compound 0.04 µM)	relative viability (Idelalisib + Luminespib; first compound 0.1265 µM)	relative viability (Idelalisib + Luminespib; first compound 0.4 µM)	relative viability (Idelalisib + Luminespib; first compound 1.265 µM)	relative viability (Idelalisib + Luminespib; first compound 4 µM)	relative viability (Idelalisib + Phenformin; first compound 0.04 µM)	relative viability (Idelalisib + Phenformin; first compound 0.1265 µM)	relative viability (Idelalisib + Phenformin; first compound 0.4 µM)	relative viability (Idelalisib + Phenformin; first compound 1.265 µM)	relative viability (Idelalisib + Phenformin; first compound 4 µM)	relative viability (Pemetrexed + OSI-027; first compound 0.002 µM)	relative viability (Pemetrexed + OSI-027; first compound 0.006325 µM)	relative viability (Pemetrexed + OSI-027; first compound 0.02 µM)	relative viability (Pemetrexed + OSI-027; first compound 0.06325 µM)	relative viability (Pemetrexed + OSI-027; first compound 0.2 µM)	relative viability (Pemetrexed + Palbociclib; first compound 0.002 µM)	relative viability (Pemetrexed + Palbociclib; first compound 0.006325 µM)	relative viability (Pemetrexed + Palbociclib; first compound 0.02 µM)	relative viability (Pemetrexed + Palbociclib; first compound 0.06325 µM)	relative viability (Pemetrexed + Palbociclib; first compound 0.2 µM)
NCI-H520	0.197	0.251	0.222	0.217	0.192	0.513	0.585	0.466	0.451	0.397	0.225	0.246	0.321	0.267	0.265	0.225	0.238	0.271	0.243	0.248
NCI-H2405	0.777	0.621	0.473	0.52	0.442	0.451	0.37	0.322	0.355	0.35	0.628	0.597	0.67	0.641	0.663	0.524	0.531	0.535	0.514	0.48
LCLC-97TM1	0.82	0.738	0.708	0.818	0.607	0.43	0.434	0.267	0.592	0.453	0.552	0.361	0.61	0.477	0.235	0.225	0.228	0.206	0.21	0.259
NCI-H727	0.327	0.345		0.333	0.451	0.582	0.56		0.607	0.448	0.568	0.668	0.587	0.692	0.752	0.721	0.692	0.638	0.633	0.613
